Read-outs that look alike come from different tables or passages of the source. Starred links: 1 amine or outer side, 2 acyl side, 3 side chain; linkers in the order of their positions; H or OH if unused. Non-standard residues stand in square brackets, D forms with d. Residues, ends and D or L forms follow the SMILES beside them. *: point of attachment. X1 = Cc1cc(F)cc(-c2cnc(NCCNC(=O)CCOCCC(=O)*)c(-c3nc4ccc(Cl)cc4[nH]3)c2N2CCC(N)CC2)c1; X5 = Cc1cc(F)cc(-c2cnc(NCCNC(=O)CCOCCC(=O)*)c(-c3nc4cc(Cl)ccc4[nH]3)c2N2CCC(N)CC2)c1; Dolaproine = CO[C@@H]([C@@H]1CCCN1)[C@@H](C)C(=O)O; Dil = CC[C@H](C)[C@H](NC)[C@@H](CC(=O)O)OC; PABC = O=C(OCc1ccc(N[*:1])cc1)[*:2]; X2 = C[C@@H](N*)[C@@H](O)c1ccccc1; Cya = N[C@@H](CS(=O)(=O)O)C(=O)O; Cit = NC(=O)NCCC[C@H](N)C(=O)O; NMeV = CN[C@H](C(=O)O)C(C)C
Columns and labels:
Assay type in all cases: cell-based
SST2 = target: T1, SST2 (Homo sapiens, UniProt P30874); assay: PathHunter CHO-K1 SST2 internalization assay; conditions: PathHunter CHO-K1 SST2, 90 min
T1 construct: host or cells: PathHunter CHO-K1 SST2 cells
Procedure: SMDCs of the present invention were assessed in vitro using the human PathHunter CHO-K1 SST2 β-arrestin2 and PathHunter CHO-K1 SST2 Internalization Assays from DiscoverX. The CHO-K cells were seeded in 20 μLs of cell culture medium in a white-walled 384 well tissue culture-compatible plate at a density of 2500 cells/well. After a 48-hour incubation, cells were treated with 5 μLs of a 1:3 serially diluted SST2 SMDC prepared at 5× concentration with a final top compound concentration of 10 uM for 90 min at 37 C and in 5% CO2. 11 dilutions were tested as well as one treatment that was compound free. After incubation, the media containing treatments were discarded and 20 μL of a working solution of Beta-Glo from Promega Beta-Glo Assay System was added to each well. The plate was then incubated for 60 min at room temperature in the dark. Luminescence was measured using a Tecan plate reader. IC50 curves were generated using the nonlinear regression analysis (four-parameters) with GraphPad Prism 9. Results were the average of duplicates and are corrected for background.

[1] = test system: NCI-H524 (ATCC) human small cell lung cancer cells
Procedure: SMDCs of the present invention were assessed in an in vitro assay evaluating the inhibition of cell proliferation. NCI-H524 (ATCC) human small cell lung cancer cells were plated in 96-well V-bottom plates (Costar) at a concentration of 5,000 cells/well. 24 h later, the cells were treated for 2 h with a SMDC. SMDC starting dose was 1 uM and two-fold serial dilutions were done for a total of 11 points. After 2 h of treatment, cells were spun down, and the drug-containing media was removed, and fresh complete media was added and used to resuspend the cells, which were spun again. After removal of the media, the cells were resuspended in complete medium and incubated for an additional 70 h. Cell proliferation was assessed using the CellTiter Glo Assay according to the standard protocol (Promega). Luminescence was measured using a TECAN plate reader. Percent proliferation inhibition was calculated using the following formula: % inhibition=(Luminescence Control−Luminescence Treatment)/Luminescence Control*100. IC50 curves were generated using the nonlinear regression analysis (four-parameter) with GraphPad Prism 9.

[2] = target: T2, human somatostatin receptor subtype 2 (Homo sapiens, UniProt P30874); assay: Functional cAMP assay for SSTR2 agonists (HTRF) in CHO-K1 cells; conditions: CHO-K1 cells stably expressing human SST2, 20 min
T2 construct: expressed in transfected cells
Source text: General overview: All five SSTR subtypes are Gi coupled G-protein coupled receptors (GPCRs) that lead to decreases in intracellular cyclic AMP (cAMP) when activated by an agonist. Therefore, measurement of intracellular cAMP levels can be used to assess whether compounds of the invention are agonists of SSTR subtypes (John Kelly, Troy Stevens, W. Joseph Thompson, and Roland Seifert, Current Protocols in Pharmacology, 2005, 2.2.1-2.2). One example of an intracellular cAMP assay is described below.
Functional Assay for SSTR2 Agonists
Four days prior to the assay, 2,000 Chinese hamster ovary cells (CHO-K1, ATCC #CCL-61) stably expressing the human somatostatin receptor subtype 2 are plated in each well of a 96-well tissue culture-treated plate in Ham's F12 growth media (ThermoFisher #10-080-CM) supplemented with 10% donor bovine serum (Gemini Bio-Products #100-506), 100 U/mL penicillin; 100 ug/mL streptomycin; 2 mM L-glutamine (Gemini Bio-Products #400-110) and 0.2 mg/mL hygromycin B (GoldBio #31282-04-9). The cells are cultured at 37° C., 5% CO2 and 95% humidity. cAMP is measured with HTRF dynamic cAMP assay (Cisbio, #62AM5PEJ) per manufacturer's instructions. On the day of the assay, the media is aspirated and the cells are treated with 50 μL of stimulation buffer supplemented with 10.2 mM 3-Isobutyl-1-methylxanthine (IBMX, Millipore Sigma #15879) and 1.6 μM NKH477 (Tocris #1603), plus various dilutions of SMDCs of the present invention. The cells are incubated for 20 minutes at 37° C. (the final concentration of the compounds of the invention are typically 0-10,000 nM). The cells are treated with 50 μL of lysis buffer (HRTF cAMP kit, Cisbio) and incubated at room temperature for 30 minutes with rotary shaking at 600 rpm, and then diluted with 150 μL of stimulation buffer and shaken for an additional five minutes at 300 rpm. The lysate is transferred to 384-well plates and incubated for 1-24 hours at room temperature, and cAMP accumulation is detected by d2-labeled cAMP and Anti-cAMP-Cryptate. The time-resolved fluorescent signal is read using a m1000 Pro (Tecan) or CLARIOStar (BMG Labtech) microplate reader, where the samples are excited with light at 340 nm and emission light is measured at 620 nm and 665 nm. The data is expressed as a calculation of the fluorescence ratio (665 nm/620 nm). The intracellular cAMP concentrations are calculated by regression to a standard curve and are plotted vs. the concentration of the compounds of the invention. The EC50 of the compounds are calculated using standard methods. All data manipulations are in GraphPad Prism v9 (GraphPad, San Diego, CA).

T2 sequence (P30874 whole entry): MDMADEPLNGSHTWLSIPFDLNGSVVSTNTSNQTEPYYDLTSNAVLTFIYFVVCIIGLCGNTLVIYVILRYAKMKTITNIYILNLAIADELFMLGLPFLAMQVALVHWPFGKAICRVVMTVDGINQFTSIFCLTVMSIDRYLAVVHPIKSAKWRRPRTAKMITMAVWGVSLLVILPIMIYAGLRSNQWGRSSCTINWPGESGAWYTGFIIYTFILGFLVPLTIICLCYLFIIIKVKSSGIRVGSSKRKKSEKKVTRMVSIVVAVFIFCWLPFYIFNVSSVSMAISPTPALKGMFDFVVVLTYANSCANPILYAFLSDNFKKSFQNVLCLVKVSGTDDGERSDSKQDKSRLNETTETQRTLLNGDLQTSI
T1 sequence (P30874 whole entry): as above

SMILES	EC50 (SST2; read-out: Internalization EC50) [nM]	EC50 ([1]; 2 h) [nM]	EC50 ([2]; read-out: hSST2 cAMP Avg EC50) [nM]	EC50 (SST2; Internalization EC50 (nM)) [nM]	EC50 ([1]; 2 h treatment, washout, additional 70 h, read-out: H524 EC50) [nM]	EC50 ([2]; hSST2 cAMP Avg EC50 (nM)) [nM]
CCC(C)C(C(CC(=O)N1CCCC1C(OC)C(C)C(=O)NC(C)C(O)c1ccccc1)OC)N(C)C(=O)C(NC(=O)C(C(C)C)N(C)C(=O)OCc1ccc(NC(=O)[C@H](CCCNC(N)=O)NC(=O)[C@@H](NC(=O)CCOCCOCCOCCOCCOCCOCCOCCOCCC(=O)NCCNc2ncc(-c3cc(C)cc(F)c3)c(N3CCC(N)CC3)c2-c2nc3ccc(Cl)cc3[nH]2)C(C)C)cc1)C(C)C (stereo in doubt) [Compound 27]	27.8	65.5	0.2			
CC[C@H](C)[C@@H]([C@@H](CC(=O)N1CCC[C@H]1[C@H](OC)[C@@H](C)C(=O)N[C@H](C)[C@@H](O)c1ccccc1)OC)N(C)C(=O)[C@@H](NC(=O)[C@H](C(C)C)N(C)C(=O)OCc1ccc(NC(=O)[C@H](CCCNC(N)=O)NC(=O)[C@@H](NC(=O)CCOCCC(=O)NCCNc2ncc(-c3cc(C)cc(F)c3)c(N3CCC(N)CC3)c2-c2nc3ccc(Cl)cc3[nH]2)C(C)C)cc1C(=O)NCCN)C(C)C [Compound 82]	6	0.79	0.31			
CC[C@H](C)[C@@H]([C@@H](CC(=O)N1CCC[C@H]1[C@H](OC)[C@@H](C)C(=O)N[C@H](C)[C@@H](O)c1ccccc1)OC)N(C)C(=O)[C@@H](NC(=O)[C@H](C(C)C)N(C)C(=O)OCc1ccc(NC(=O)[C@H](CCCNC(N)=O)NC(=O)[C@@H](NC(=O)CCOCCOCCOCCOCCC(=O)NCCNc2ncc(-c3cc(C)cc(F)c3)c(N3CCC(N)CC3)c2-c2nc3ccc(Cl)cc3[nH]2)C(C)C)cc1C(=O)NCCNC(=O)CCOCCOCCOCCOCCN)C(C)C [Compound 48]	6.9	12.4	0.26			
CC[C@H](C)[C@@H]([C@@H](CC(=O)N1CCC[C@H]1[C@H](OC)[C@@H](C)C(=O)N[C@H](C)[C@@H](O)c1ccccc1)OC)N(C)C(=O)[C@@H](NC(=O)[C@H](C(C)C)N(C)C(=O)OCc1ccc(NC(=O)[C@H](CCCNC(N)=O)NC(=O)[C@@H](NC(=O)[C@H](CS(N)(=O)=O)NC(=O)CCOCCC(=O)NCCNc2ncc(-c3cc(C)cc(F)c3)c(N3CCC(N)CC3)c2-c2nc3ccc(Cl)cc3[nH]2)C(C)C)cc1C(=O)NCCN)C(C)C [Compound 159]	10	2.6	0.3			
CC[C@H](C)[C@@H]([C@@H](CC(=O)N1CCC[C@H]1[C@H](OC)[C@@H](C)C(=O)N[C@H](C)[C@@H](O)c1ccccc1)OC)N(C)C(=O)[C@@H](NC(=O)[C@H](C(C)C)N(C)C(=O)OCc1ccc(NC(=O)[C@H](C)NC(=O)[C@@H](NC(=O)[C@H](CCC(=O)O)NC(=O)CCOCCC(=O)NCCNc2ncc(-c3cc(C)cc(F)c3)c(N3CCC(N)CC3)c2-c2nc3cc(Cl)ccc3[nH]2)C(C)C)cc1)C(C)C [Compound 32] (X5-EVA[PABC][NMeV]V[Dil][Dolaproine]-X2)		155				
CC[C@@]1(O)C(=O)OCc2c1cc1n(c2=O)Cc2c-1nc1cc(F)c(C)c3c1c2[C@@H](NC(=O)OCc1ccc(NC(=O)[C@H](CCCNC(N)=O)NC(=O)[C@@H](NC(=O)CCOCCOCCOCCOCCC(=O)NCCNc2ncc(-c4cc(C)cc(F)c4)c(N4CCC(N)CC4)c2-c2nc4ccc(Cl)cc4[nH]2)C(C)C)cc1C(=O)NCCN)CC3 [Compound 91]				5.6	190	0.18
Cc1cc(F)cc(-c2cnc(NCCNC(=O)CCOCCOCCOCCOCCNC(=O)CCCCC[N+]3=C(/C=C/C=C/C=C4/N(C)c5ccccc5C4(C)C)C(C)(C)c4ccccc43)c(-c3nc4ccc(Cl)cc4[nH]3)c2N2CCC(N)CC2)c1 [Compound 12, 1-[5-({14-[(2-{[4-(4-aminopiperidin-1-yl)-3-(6-chloro-1H-1,3-benzodiazol-2-yl)-5-(3-fluoro-5-methylphenyl)pyridin-2-yl]amino}ethyl)carbamoyl]-3,6,9,12-tetraoxatetradecan-1-yl}carbamoyl)pentyl]-3,3-dimethyl-2-[(1E,3E)-5-[(2E)-1,3,3-trimethyl-2,3-dihydro-1H-indol-2-ylidene]penta-1,3-dien-1-yl]-3H-indol-1-ium]	2.9		0.39			
CC[C@H](C)[C@@H]([C@@H](CC(=O)N1CCC[C@H]1[C@H](OC)[C@@H](C)C(=O)N[C@H](C)[C@@H](O)c1ccccc1)OC)N(C)C(=O)[C@@H](NC(=O)[C@H](C(C)C)N(C)C(=O)OCc1ccc(NC(=O)[C@H](CCCNC(N)=O)NC(=O)[C@@H](NC(=O)[C@H](CS(=O)(=O)O)NC(=O)[C@H](CCC(=O)O)NC(=O)CCOCCC(=O)NCCNc2ncc(-c3cc(C)cc(F)c3)c(N3CCC(N)CC3)c2-c2nc3ccc(Cl)cc3[nH]2)C(C)C)cc1)C(C)C [Compound 115] (X1-E[Cya]V[Cit][PABC][NMeV]V[Dil][Dolaproine]-X2)	3.6		0.08			
CC[C@@]1(O)C(=O)OCc2c1cc1n(c2=O)Cc2c-1nc1cc(F)c(C)c3c1c2[C@@H](NC(=O)OCc1ccc(NC(=O)[C@H](CCCNC(N)=O)NC(=O)[C@@H](NC(=O)CCOCCOCCOCCOCCC(=O)NCCNc2ncc(-c4cc(C)cc(F)c4)c(N4CCC(N)CC4)c2-c2nc4ccc(Cl)cc4[nH]2)C(C)C)c(O[C@@H]2O[C@H](C(=O)O)[C@@H](O)[C@H](O)[C@H]2O)c1)CC3 [Compound 127]				13		0.26
CC[C@H](C)[C@@H]([C@@H](CC(=O)N1CCC[C@H]1[C@H](OC)[C@@H](C)C(=O)N[C@H](C)[C@@H](O)c1ccccc1)OC)N(C)C(=O)[C@@H](NC(=O)[C@H](C(C)C)N(C)C(=O)OCc1ccc(NC(=O)[C@H](CCCNC(N)=O)NC(=O)[C@@H](NC(=O)[C@H](CS(=O)(=O)O)NC(=O)CCOCCOCCOCCOCCC(=O)NCCNc2ncc(-c3cc(C)cc(F)c3)c(N3CCC(N)CC3)c2-c2nc3cc(Cl)ccc3[nH]2)C(C)C)cc1)C(C)C [Compound 81]		32				
CC[C@H](C)[C@@H]([C@@H](CC(=O)N1CCC[C@H]1[C@H](OC)[C@@H](C)C(=O)N[C@H](C)[C@@H](O)c1ccccc1)OC)N(C)C(=O)[C@@H](NC(=O)[C@H](C(C)C)N(C)C(=O)OCc1ccc(NC(=O)[C@H](CCCNC(N)=O)NC(=O)[C@@H](NC(=O)[C@H](CS(=O)(=O)O)NC(=O)CCOCCOCCOCCOCCC(=O)NCCNc2ncc(-c3cc(C)cc(F)c3)c(N3CCC(N)CC3)c2-c2nc3ccc(Cl)cc3[nH]2)C(C)C)cc1C(=O)NCCN)C(C)C [Compound 157]	12		0.17			
